Patent US10562912B2 (C&C Research Laboratories, priority 2013, dated 2020)

Experiments:
Type in all cases: cell-based
HEL92.1.7 = assay: Cell growth inhibition assay, blood cancer cell line HEL92.1.7; details: Homo sapiens, HEL 92.1.7, HEL92.1.7 blood cancer cell line
Description: The inhibitory effects of the compounds of the present invention against the growth of cancer cells were evaluated as shown below. The cancer cell lines including stomach cancer cell line (AGS), breast cancer cell lines (MDA-MB-231, MDA-MB-468, and BT-549), prostate cancer cell lines (LNCaP and DU-145), colon cancer cell line (HCT116), ovarian cancer cell line (SW626), liver cancer cell line (Hep3B), kidney cancer cell line (ACHN), lung cancer cell line (NCI-H23) and blood cancer cell lines (HEL92.1.7 and U266) were cultured under the protocol provided by each supplier. A medium supplemented with 10 ng/mL of IL-6 was used for LNCaP, a prostate cancer cell line, when treated with a drug. Each type of cells to be used in experiments were sub-cultured in a 96-well plate by counting the exact number of cells using Tali™ Image-based Cytometer (Life Technologies). In a 96-well plate, AGS, HCT116, and DU-145 were employed with 3,000 cells/well; NCI-H23, SW626, Hep3B, ACHN, BT-549, MDA-MB-231, HEL92.1.7, and U266 were employed with 5,000 cells/well; and LNCaP and MDA-MB-468 were employed with 10,000 cells/well. The cells were treated with the compounds listed in Examples which were diluted in various concentrations. Upon completion of the compounds treatment, AGS, HCT116, SW626, DU145, NCI-H23, Hep3B, ACHN, BT-549, LNCaP, HEL92.1.7, and U266 cells were cultured at 37° C. under 5% CO2 for from 72 to 96 hours, and MDA-MB-231 and MDA-MB-468 cells were cultured at 37° C. in air for from 72 to 96 hours. Subsequently, the cells were observed under microscope and drug precipitation and particular findings were investigated and recorded. And then, the 96-well plate was placed at room temperature for 30 minutes, added with 20 μL/well of CellTiter-Glo solution (Cat No. G7573, Promega) and shaken for 10 minutes, followed by being subjected to the measurement using PHERAstar™ microplate reader (BMG LABTECH) according to the supplier's general luminometer protocol. Wells where only culture liquid added without cell plating were used as a negative control, whereas wells where culture liquid containing 0.1% DMSO instead of the compounds listed in Examples were used as a positive control.

LNCaP = assay: Cell growth inhibition assay, prostate cancer cell line LNCaP (medium with 10 ng/mL IL-6); details: Homo sapiens, medium supplemented with 10 ng/mL of IL-6, 10,000 cells/well
DU-145 = assay: Cell growth inhibition assay, prostate cancer cell line DU-145; details: Homo sapiens, DU-145 prostate cancer cell line
Method in brief: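 Cells were seeded at 3,000/well (HCT116, DU-145) or 5,000/well (SW626 and the others) and exposed to serial compound dilutions for 72 to 96 h at 37 °C under 5% CO2. Viability was read as CellTiter-Glo luminescence against 0.1% DMSO and cell-free wells.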

STAT3 = molecular target: T1, STAT3 (Homo sapiens, UniProt P40763); assay: STAT3 reporter gene assay (luciferase), LNCaP stable cell line (pSTAT3-TA-luc), IL-6 stimulation
T1 construct: plasmid pSTAT3-TA-luc), which contains a stably operating STAT3 promoter; endogenous in cells
Method in brief: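 Cytotoxicity was run on a duplicate plate with CellTiter-Glo, while the other plate gave luciferase read-outs from lysed LNCaP pSTAT3-TA-luc reporter cells. Cells were treated with graded compound concentrations plus IL-6 (10 ng/mL final) for 24–48 h in 3% DCC-FBS medium. Unstimulated and stimulated wells served as negative and positive controls.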

T1 sequence (P40763 whole entry): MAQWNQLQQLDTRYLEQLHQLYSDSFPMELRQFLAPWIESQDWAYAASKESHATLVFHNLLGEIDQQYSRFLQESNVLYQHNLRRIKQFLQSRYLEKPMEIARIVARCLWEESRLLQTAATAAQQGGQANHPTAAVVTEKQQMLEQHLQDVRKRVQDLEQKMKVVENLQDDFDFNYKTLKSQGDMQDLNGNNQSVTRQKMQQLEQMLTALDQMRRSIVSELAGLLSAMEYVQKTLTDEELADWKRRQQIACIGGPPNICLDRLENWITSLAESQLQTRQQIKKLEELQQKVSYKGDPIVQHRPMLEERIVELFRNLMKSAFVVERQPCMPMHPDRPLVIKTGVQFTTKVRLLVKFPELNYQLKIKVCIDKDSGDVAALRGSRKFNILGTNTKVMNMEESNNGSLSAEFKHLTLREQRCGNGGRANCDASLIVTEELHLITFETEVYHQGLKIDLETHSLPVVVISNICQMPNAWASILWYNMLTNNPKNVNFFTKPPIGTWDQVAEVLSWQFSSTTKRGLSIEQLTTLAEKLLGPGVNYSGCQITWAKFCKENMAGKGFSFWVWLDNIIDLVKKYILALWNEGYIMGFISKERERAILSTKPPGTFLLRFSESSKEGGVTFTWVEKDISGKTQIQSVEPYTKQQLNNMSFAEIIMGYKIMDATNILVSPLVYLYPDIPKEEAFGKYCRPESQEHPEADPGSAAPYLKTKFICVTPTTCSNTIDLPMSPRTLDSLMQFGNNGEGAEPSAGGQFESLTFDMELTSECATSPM

Row | Compound | IC50 (HEL92.1.7) [µM] | IC50 (LNCaP) [µM] | IC50 (DU-145) [µM] | IC50 (STAT3) [µM]
1 | COc1ccc(OC)c(C(C)(C)c2cc(Cl)cc(NC(=O)c3cc4cc(NS(C)(=O)=O)ccc4s3)c2)c1 [Example 156, N-(3-chloro-5-(2-(2,5-dimethoxyphenyl)propan-2-yl)phenyl)-5-(methylsulfonamido)benzo[b]thiophene-2-carboxamide] | 0.74 | 0.14 | 0.25 | 0.23
2 | COc1cc(OC(F)(F)F)cc(-c2cc(Cl)cc(NC(=O)c3cc4cc(NS(C)(=O)=O)c(F)cc4s3)c2)c1 [Example 325, N-(5-chloro-3′-methoxy-5′-(trifluoromethoxy)-[1,1′-biphenyl]-3-yl)-6-fluoro-5-(methylsulfonamido)benzo[b]thiophene-2-carboxamide] | 0.39 | 0.16 | 0.15 | 0.24
3 | COc1ccc(C(C)(C)c2cc(Cl)cc(NC(=O)c3cc4cc(NS(C)(=O)=O)ccc4s3)c2)cc1OC [Example 153, N-(3-chloro-5-(2-(3,4-dimethoxyphenyl)propan-2-yl)phenyl)-5-(methylsulfonamido)benzo[b]thiophene-2-carboxamide] | 0.39 | 0.1 | 0.15 | 0.15
4 | CN(c1cc(Cl)cc(NC(=O)c2cc3cc(NS(C)(=O)=O)ccc3s2)c1)c1ccc(F)cc1F [Example 439, N-(3-chloro-5-((2,4-difluorophenyl)(methyl)amino)phenyl)-5-(methylsulfonamido)benzo[b]thiophene-2-carboxamide] | 0.64 | 0.15 | 0.089 | 0.053
5 | O=C(Nc1cc(Cl)cc(-c2ccc(F)cc2F)c1)c1cc2cc(NS(=O)(=O)C3CCOC3)c(F)cc2s1 (stereo not shown) [Example 330, N-(5-chloro-2′,4′-difluoro-[1,1′-biphenyl]-3-yl)-6-fluoro-5-((tetrahydrofuran)-3-sulfonamido)benzo[b]thiophene-2-carboxamide] | 0.057 | 0.011 | 0.005 | 0.029
6 | CS(=O)(=O)Nc1cc2cc(C(=O)Nc3cc(Cl)cc(-c4ccc(F)cc4F)c3)sc2cc1F [Example 322, N-(5-chloro-2′,4′-difluoro-[1,1′-biphenyl]-3-yl)-6-fluoro-5-(methylsulfonamido)benzo[b]thiophene-2-carboxamide] | 0.049 | 0.021 | 0.011 | 0.028
7 | COc1cc(OC(F)(F)F)cc(C(C)(C)c2cc(NC(=O)c3cc4cc(NS(C)(=O)=O)ccc4s3)cc(Cl)n2)c1 [Example 149, N-(2-chloro-6-(2-(3-methoxy-5-(trifluoromethoxy)phenyl)propan-2-yl)pyridin-4-yl)-5-(methylsulfonamido)benzo[b]thiophene-2-carboxamide] | 0.14 | 0.05 | 0.03 | 0.07
8 | CC(C)Oc1cc(OC(F)(F)F)cc(C(C)(C)c2cc(Cl)cc(NC(=O)c3cc4cc(NS(=O)(=O)CCN5CCOCC5)ccc4s3)c2)c1 [Example 209, N-(3-chloro-5-(2-(3-isopropoxy-5-(trifluoromethoxy)phenyl)propan-2-yl)phenyl)-5-((2-morpholinoethyl)sulfonamido)benzo[b]thiophene-2-carboxamide] | 0.099 | 0.053 | 0.027 | 0.043
9 | CC(C)(c1cc(Cl)cc(NC(=O)c2cc3cc(NS(C)(=O)=O)ccc3s2)c1)c1ccc[nH]1 [Example 166, N-(3-(2-(1H-pyrrol-2-yl)propan-2-yl)-5-chlorophenyl)-5-(methylsulfonamido)benzo[b]thiophene-2-carboxamide] | > 1.1 | 1 | 0.41 | 0.31
10 | CC(C)(c1cc[nH]c1)c1cc(Cl)cc(NC(=O)c2cc3cc(NS(C)(=O)=O)ccc3s2)c1 [Example 167, N-(3-(2-(1H-pyrrol-3-yl)propan-2-yl)-5-chlorophenyl)-5-(methylsulfonamido)benzo[b]thiophene-2-carboxamide] | > 1.1 | 2.3 | > 1.1 | 2.6
